We go through 33 compounds from the Bradley open melting point set (2014).

By melting point is commonly meant the temperature of the solid-liquid transition. Take `Cc1ccc(S(=O)(=O)OC[C@@H]2OC(C)(C)O[C@H]2COS(=O)(=O)c2ccc(C)cc2)cc1` [1,4-di-o-tosyl-2,3-o-isopropylidene-l-threitol]: the melting point came to 90 °C.

The compound `Cc1ccc(B(O)O)cc1Cl` [3-chloro-4-methylbenzeneboronic acid] gave a melting point of 227 °C.

Regarding `CC(C)(C)c1ccc(O)c(N)c1` [2-amino-4-tert-butylphenol], the melting point was found to be 163 °C.

`OC1COC2C(O)COC12` (stereo not drawn) [isosorbide] displayed a melting point of 61 °C.

As for `OCc1ccncc1` [4-pyridinemethanol], the melting point is 54 °C.

`CC(=O)OC1CCC2C3CCC4CC(CC(=O)O)CCC4(C)C3CCC12C` (stereo not drawn) [[17-(acetyloxy)androstan-3-yl]acetic acid] gave a melting point of 152 °C.

`O=[O+][O-]` [Trioxid-2-en-2-ium-1-ide]: the melting point was -193 °C.

Regarding `O=Cc1ccccc1Cl` [o-chlorobenzaldehyde], the melting point worked out at 11 °C.

With `NC(=O)NCCC[C@H](N)C(=O)O` [L-Citrulline], the melting point was 214 °C.

In the case of `CC(C)CC(C)C` [2,4-dimethylpentane], the melting point is -119 °C.

As for `C[Si](C)(C)Cl` [Chloro(trimethyl)silane], the melting point is -58 °C.

Compound `c1cc2cccc3c4cccc5cccc(c(c1)c23)c54` [Perylene] yielded a melting point of 278 °C.

As for `C1CCOC1` [Tetrahydrofuran], the melting point was -108 °C.

On to `O=[N+]([O-])c1ccccc1I` [1-iodo-2-nitrobenzene], for which the melting point was found to be 50 °C.

For `CCCCCCCCCCN` [1-aminodecane], the melting point was determined as 16 °C.

On to `CCOC(=O)CCC(C)C1CCC2C3C=CC4CC(OC(C)=O)CCC4(C)C3CC(OC(C)=O)C12C` (stereo not drawn) [ethyl 3,12-bis(acetyloxy)chol-6-en-24-oate], for which the melting point was 84 °C.

On to `O=C(O)c1cc(Br)ccc1Cl` [5-bromo-2-chlorobenzoic_acid], for which the melting point is 154 °C.

For `CCCOCCC` [di-n-propyl ether], the melting point was -122 °C.

`CCCCCCCCCCCCCCCCCCCC(=O)O` [arachidic acid] came in with a melting point of 75 °C.

In the case of `CCC(C)(O)C#CC(C)(O)CC` (stereo not drawn) [3,6-dimethyl-4-octyn-3,6-diol], the melting point worked out at 54 °C.

The compound `O=C(OC[C@H]1O[C@@H](OC(=O)c2cc(O)c(O)c(OC(=O)c3cc(O)c(O)c(O)c3)c2)[C@H](OC(=O)c2cc(O)c(O)c(OC(=O)c3cc(O)c(O)c(O)c3)c2)[C@@H](OC(=O)c2cc(O)c(O)c(OC(=O)c3cc(O)c(O)c(O)c3)c2)[C@@H]1OC(=O)c1cc(O)c(O)c(OC(=O)c2cc(O)c(O)c(O)c2)c1)c1cc(O)c(O)c(OC(=O)c2cc(O)c(O)c(O)c2)c1` yielded a melting point of 210 °C.

Compound `O=C(O)/C=C/c1ccccc1O` [trans-2-hydroxycinnamic acid] returned a melting point of 217 °C.

Regarding `CCc1ccccc1N` [2-ethylaniline], the melting point is -44 °C.

As to `C[C@]12CCC(=O)C=C1CC[C@@H]1[C@@H]2[C@@H](O)C[C@]2(C=O)[C@@H](C(=O)CO)CC[C@@H]12` [Aldosterone], the melting point is 166 °C.

`O=C(Cc1ccccc1)Cc1ccccc1` [1,3-diphenylacetone] had a melting point of 34 °C.

In turn, `Oc1cccc(I)c1` [m-iodophenol] returned a melting point of 43 °C.

Compound `NCCCNCCCCNCCCN` [spermine] returned a melting point of 29 °C.

As for `Cc1cccc2ccccc12` [1-Methylnaphthalene], the melting point was -22 °C.

`O=c1cc[nH]c(=O)[nH]1` [uracil] gave a melting point of 330 °C.

Turning to `O=CNc1ccccc1` [N-Phenylformamide], the melting point is 47 °C.

In the case of `Nc1ccc(Cl)cc1C(=O)c1ccccc1` [2-amino-5-chlorobenzophenone], the melting point came to 98 °C.

Regarding `COc1cccc(OC)c1OC` [1,2,3-trimethoxybenzene], the melting point is 45 °C.

The compound `Nc1ccc(/N=N/c2ccc(/N=N/c3ccc(/N=N/c4ccc(/N=N/c5ccc(N)cc5)cc4)cc3)cc2)cc1` showed a melting point of 292 °C.
